# Earlier results in patent US7794994B2 (Kemeta, LLC, priority 2001, dated 2010).
# Read-outs that look alike come from different tables or passages of the source.
# Key:
# [1] = system: acetone carboxylase from Rhodobacter capsulatus strain B10; conditions: cited from earlier work
# [2] = as reported by NIST; cited from earlier work
# [3] = system: S-ADH from Pseudomonas species 6307; conditions: cited from earlier work
SMILES,Km [1] [µM],Vmax [1],Henry's Law constant [2] [M·atm^−1],inhibition by ethanol ([3]; in the presence of 10 mM ethanol) [%],inhibition by ethanol ([3]; in the presence of 100 mM ethanol) [%]
"CC(C)=O [Acetone, acetone]",8.2,0.291 μmol acetone consumed·min^−1mg^−1 protein,24,–,–
CCO [Ethanol],–,–,–,0,30
